Experimental findings from patent publication US20220227813A1, “Ras INHIBITORY PEPTIDE” (ICHIMARU PHARCOS CO., LTD., priority 2019, published 2022) are described below.

Series [1] in a line: resistance to protease degradation in rat plasma (RP-HPLC). The settings on record: 37° C., 24 hours compared to 0 hours. It counts as in vitro ADME. The procedure:
For 1 μL of each 10 mM peptide, 20 μL of rat plasma was added and incubated at 37° C. for an arbitrary time (0 or 24 hours). […] To remove plasma proteins, the mixture was centrifuged at a speed of 15,000 rpm under 4° C. for 10 min. The supernatant was collected and the remaining amount of peptide was detected by RP-HPLC (solution A: 0.1% TFA/water, solution B: 0.1% TFA/acetonitrile, 20 min gradient of 80% solution A→10% solution A at 1 mL/min) using a SunFire C18 column (5 μm, 4.6×^150 mm).

In series [2] the test system is PANC-1 cells expressing K-Ras (G12D). Kind of series: cell proliferation test, PANC-1 cells. It counts as cell-based. Particulars: final concentration 30 μM, ATP quantification (CellTiter-Glo), N=4. The procedure:
The following is a brief description of the cell proliferation test, which may be performed according to the Non-Patent Literature 3. A427 cells expressing K-Ras(G12D) (Catalog No. HTB-53, ATCC) or PANC-1 cells expressing K-Ras (G12D) (Catalog No. CRL-1469, ATCC) were spread into 96-well plates at 1×10^3 cells/well and cultured overnight at 37° C. in a CO2 incubator. Peptides diluted in serum medium (final concentration 30 μM) were added to the wells, and after culturing for 24 hours, all the medium was removed, and then freshly diluted peptides in serum medium (final concentration 30 μM) were added to the wells and incubated for 24 hours. The number of cells in the wells was quantified by CellTiter-Glo (Catalog No. G7570, Promega) after the removal of medium and addition of peptide for a total of three times.
In general terms: In ATP-based viability assays light output follows the ATP content of the culture.

For series [3], the system named is PANC-1 cells expressing K-Ras(G12D). Kind of series: anticancer activity in orthotopic transplant model mice. The format is in vivo. The settings on record: 40 mg/kg tail vein once every two days. The procedure: PANC-1 cells expressing K-Ras(G12D) (Catalog No. CRL-1469, ATCC) were transplanted at 2.5×10^6 cells under the tail capsule of the pancreas of BALB/cAJc1-nu/nu mice (male, 8 weeks old) (Nihon Clare Co., Ltd.), and were used for the test one week later. The peptide (Seq-17) synthesized in this study was dissolved in DMSO, diluted 10-fold with saline, and administered at 40 mg/kg through the tail vein once every two days, and the body weight of the mice was measured over time (Sham group, peptide administration group, and vehicle group: N=7 for each). The Sham group was the group that received saline (10% DMSO) without cancer cell transplantation, and the Vehicle group was the group that received saline (10% DMSO) with cancer cell transplantation. The weight of the mice and the weight of their organs (pancreas, liver, and kidney) were measured four weeks after the start of administration.

Series [4] shares this test system. Kind of series: anticancer activity in subcutaneous carcinoma-bearing mice. It counts as in vivo. The settings on record: 40 mg/kg tail vein once every two days. The method, then: PANC-1 cells expressing K-Ras(G12D) (Catalog No. CRL-1469, ATCC) were transplanted at 1×10^7 cells under the left inguinal skin of Crl:SHO-Prkdc^scidHr^hr mice (female, 7 weeks old) (Charles River, Japan). When the tumor volume reached approximately 50 mm^3, the mice were submitted to the study. Tumor volume was determined by measuring the long diameter (mm) and the short diameter (mm) orthogonal to the long diameter from the skin surface with calipers and using the formula: (long diameter)×(short diameter)^2×0.5, with the unit being mm^3. A representative example of the peptide in one of embodiments (Seq-17) was dissolved in DMSO, diluted 10 times with saline, and administered at 40 mg/kg through the tail vein once every two days, and the body weight and tumor volume of mice were measured over time (peptide administration group: N=10, vehicle group: N=4). The vehicle group was the group in which cancer cells were implanted and saline (10% DMSO) was administered.

Starred links: 1 amine or outer side, 2 acyl side, 3 side chain; linkers in the order of their positions; H or OH if unused. Positions of bridges follow the written chain, without caps; N, C: chain ends. Non-standard residues stand in square brackets, D forms with d. Residues, ends and D or L forms follow the SMILES beside them. Phe(4-F) = N[C@@H](Cc1ccc(F)cc1)C(=O)O; X1 = CCCCCCC[C@H](N[*:1])C(=O)[*:2]; Nle = CCCC[C@H](N)C(=O)O; X2 = C(C[*:1])C[*:2]; βAla = NCCC(=O)O

As to `CCCCCCC[C@@H]1NC(=O)[C@@H]2CSCCCSC[C@@H](NC(=O)[C@H](Cc3c[nH]c4ccccc34)NC(=O)[C@@H]3CCCN3C(=O)[C@H](CC(=O)O)NC(=O)[C@H](Cc3ccc(F)cc3)NC(=O)[C@H](CO)NC1=O)C(=O)NCCC(=O)N1CCC[C@H]1C(=O)N[C@@H](CCCC)C(=O)N2` [Seq-17, c[βAla-Pro-Nle-c(Cys-Anon-Ser-4fF-Asp-Pro-Trp-^DCys)]] (cyclo([βAla]P[Nle]C[X1]S[Phe(4-F)]DPW[dC]); linker 4-11 via X2), the “peptide-derived RP-HPLC peak remaining after incubation in rat plasma” value in series [1] is reported as “remained almost the same”. Also, in series [2], the “growth inhibitory activity against PANC-1 cells” value is reported as “inhibited the proliferation”. Also, the “body weight of the mice” value in series [3] is “no decrease”. In addition, in series [3] (four weeks), the weight of kidney result is given as “no significant difference” and the weight of liver entry was “no significant difference”. In addition, in series [3] (four weeks, p-value (Student's t-test) less than 0.05), the “increase in the weight of pancreas” value is on record as “significantly suppressed”. The “body weight of the mice” value in series [4] is reported as “no decrease”. In addition, the “increase in tumor volume” value in series [4] (p-value (Student's t-test) less than 0.005) is on record as “significantly suppressed”.
